3 molecules from patent US20230065158A1, “OXABICYCLOHEPTANES FOR TREATMENT OF SMALL CELL LUNG CANCER” (Lixte Biotechnology, Inc., priority 2021, published 2023) can be followed below.

The target of one assay is T1, PP2A (Homo sapiens, UniProt P67775).
T1 construct: endogenous in cells; host or cells: H524 (human SCLC) cells
The experiment in a line: PP2A immunoprecipitation Ser/Thr phosphatase activity assay in treated H524 cells. In kind it is cell-based. Conditions: cantharidin 10 μM, 24 h. As to the method: FIGS. 1A-IL depict the effects of LB-100 on PP2A-A expression in SCLC tumors and cells. […] A Mann-Whitney U test was used for comparison between the normal and SCLC samples. FIG. 1B: IHC for PP2A was conducted on TMA tissue sections and images were captured at 4× or 20× using a 3D-Histech PANNORAMIC SCAN whole slide scanner (3D-Histech, Budapest, Hungary). […] TMAs were scored in normal (n=24) and tumor (n=79) cores on a scale from 0 (no staining/no protein expression) to 3+(strong staining/high protein expression). FIG. 1C: Summary bar graph of the average PP2A subunit staining. IHC staining intensity of normal and tumor cores. There was a statistically significant difference between normal and tumor tissue (p<0.001). FIG. 1D: In order to compare the expression of PP2A subunits A and C, cell lysates from seven SCLC cell lines and HBEC 3KT (non-malignant cell line) were subjected to western blotting. FIG. 1E: PP2A activity was determined using a serine/threonine phosphatase activity assay (Millipore) after 24 h exposure to cantharidin (10 μM) and LB-100 (5 μM). […] LB-100 alone or in combination with carboplatin inhibited proliferation and colony formation in SCLC cells. The Cell Counting Kit-8 assay detected cell H524 and H69 cell viability. […] FIGS. 1I-1K: Graphs depict the mean+SEM of percent viability for cells (n=3). […]

A further assay deals with H146 cells. The experiment in a line: Cell Counting Kit-8 cytotoxicity, H146. As to conditions: Homo sapiens, NCI-H146, 72 h, read-out: Cytotoxicity IC50, H146.
In another assay the test system is H526 cells. The experiment in a line: Cell Counting Kit-8 cytotoxicity, H526. As to conditions: Homo sapiens, NCI-H526, 72 h, read-out: Cytotoxicity IC50, H526.
A further assay concerns H446 cells. The experiment in a line: Cell Counting Kit-8 cytotoxicity, H446. Conditions: Homo sapiens, NCI-H446, 72 h, read-out: Cytotoxicity IC50, H446.
Another assay relates to H69 cells. The experiment in a line: Cell Counting Kit-8 cytotoxicity and drug combination, H69. As to conditions: Homo sapiens, NCI-H69, 72 h, read-out: Cytotoxicity IC50, H69; 72 hours. The method, then: (§1) A Mann-Whitney U test was used for comparison between the normal and SCLC samples. FIG. 1B: IHC for PP2A was conducted on TMA tissue sections and images were captured at 4× or 20× using a 3D-Histech PANNORAMIC SCAN whole slide scanner (3D-Histech, Budapest, Hungary). […] TMAs were scored in normal (n=24) and tumor (n=79) cores on a scale from 0 (no staining/no protein expression) to 3+(strong staining/high protein expression). FIG. 1C: Summary bar graph of the average PP2A subunit staining. IHC staining intensity of normal and tumor cores. […] FIG. 1D: In order to compare the expression of PP2A subunits A and C, cell lysates from seven SCLC cell lines and HBEC 3KT (non-malignant cell line) were subjected to western blotting. FIG. 1E: PP2A activity was determined using a serine/threonine phosphatase activity assay (Millipore) after 24 h exposure to cantharidin (10 μM) and LB-100 (5 μM). […] The Cell Counting Kit-8 assay detected cell H524 and H69 cell viability. […] FIGS. 1I-1K: Graphs depict the mean+SEM of percent viability for cells (n=3). Colony formation assays were used to count the ability of H524 (FIGS. 11 and 1J) and H69 (FIGS. 1K and 1L) cells to form colonies. […] Representative images of colonies at 4× are shown under the graph (n=2).*p<0.05; **, p<0.01; *** p<0.001; ****, p<0.0001. Experiments were repeated in triplicate and representative data are shown.

The test system of the next assay is H524 and H69 cells. The experiment in a line: Colony formation assay. In kind it is cell-based. Conditions: both cell lines; H524/H69: LB-100 2.5/20 μM, carboplatin 4/20 μM, etoposide 3/30 μM. As to the method:
as §1

The next assay relates to H524 cells. The experiment in a line: Cell Counting Kit-8 cytotoxicity and drug combination, H524. As to conditions: Homo sapiens, NCI-H524, 72 h, read-out: Cytotoxicity IC50, H524; 72 hours. As to the method: as §1
In a further assay the test system is H82 cells. The experiment in a line: Cell Counting Kit-8 cytotoxicity, H82. Conditions: Homo sapiens, NCI-H82, 72 h, read-out: Cytotoxicity IC50, H82.
The next assay has as its system H446 spheroids. The experiment in a line: H446 spheroids with drugs and T cells, live imaging. In kind it is cell-based. Conditions: without T cells, 48 h. As to the method:
FIGS. 7A-7G depict results of T cells infiltration in H446 spheroids in the presence of LB100 and atezolizumab. FIG. 7A: Schematic of the effect of activated T cells on H446 spheroid degradation. At time point 0, single spheroids in 96 well plate were treated with LB-100, atezolizumab and T cells. Beads mimic in vivo T cell activation by two action signals CD3 and CD28. IncuCyte® Live-Cell Analysis System was used for the spheroidal imaging. Right panel presents spheroidal degeneration after 48 h incubation with LB-100, atezolizumab and activated T cells. FIGS. 7B and 7C: Automated image analysis provides metrics (0 h-μm, […]) and spheroid area (yellow-bright field mask). Column bars present mean values of spheroids at 0h. Representative images in bright field mask. […]
Cytotoxic CD8+ cells were isolated from whole blood, buffy coat of healthy donors following the protocol described in the Methods. […] Spheroid survival was monitored for 48 hours and their diameters were measured from phase contrast images. […]
H446 were generated as described in Materials and Methods (Monitoring of spheroid growth and cytotoxicity with the IncuCyte® Live-Cell Analysis System and IncuCyte® Cytotox reagent) following incubation with T cells and drugs. The effect of LB100 and atezolizumab in the presence of T cells was monitored with IncuCyte 3D Multi-Tumor Spheroid assay.

T1 sequence (P67775 whole entry): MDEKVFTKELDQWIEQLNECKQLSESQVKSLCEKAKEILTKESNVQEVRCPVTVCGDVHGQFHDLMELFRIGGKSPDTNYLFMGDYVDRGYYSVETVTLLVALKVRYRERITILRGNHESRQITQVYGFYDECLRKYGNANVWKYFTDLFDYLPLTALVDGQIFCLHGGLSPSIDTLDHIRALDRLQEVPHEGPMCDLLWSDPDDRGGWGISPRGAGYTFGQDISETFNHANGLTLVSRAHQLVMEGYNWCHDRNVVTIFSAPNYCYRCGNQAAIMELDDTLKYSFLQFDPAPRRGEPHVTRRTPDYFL
T1 sequence (P30153 whole entry partner): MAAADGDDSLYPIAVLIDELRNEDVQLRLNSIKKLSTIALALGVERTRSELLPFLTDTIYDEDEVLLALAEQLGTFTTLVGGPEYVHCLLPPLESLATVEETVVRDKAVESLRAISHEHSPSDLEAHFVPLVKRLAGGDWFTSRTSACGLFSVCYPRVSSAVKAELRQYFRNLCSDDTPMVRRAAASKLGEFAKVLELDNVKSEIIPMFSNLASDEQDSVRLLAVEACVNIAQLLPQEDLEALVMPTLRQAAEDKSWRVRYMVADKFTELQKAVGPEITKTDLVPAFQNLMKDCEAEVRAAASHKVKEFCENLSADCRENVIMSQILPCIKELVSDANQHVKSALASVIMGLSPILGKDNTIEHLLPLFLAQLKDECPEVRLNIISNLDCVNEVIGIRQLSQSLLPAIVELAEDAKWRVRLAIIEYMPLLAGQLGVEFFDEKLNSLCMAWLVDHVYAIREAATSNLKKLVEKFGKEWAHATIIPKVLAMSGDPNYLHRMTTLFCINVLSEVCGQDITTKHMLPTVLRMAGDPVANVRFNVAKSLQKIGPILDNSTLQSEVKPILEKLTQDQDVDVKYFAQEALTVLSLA
Text for H146 cells: (§2) To determine specific cytotoxicity, we used Cell Counting Kit-8 (Dojindo Molecular Technologies, Rockville, Md.) as previously described (50).
Text for H446 cells: as §2
Text for H526 cells: as §2
Text for H82 cells: as §2

On to `C[C@@]12C(=O)OC(=O)[C@]1(C)[C@H]1CC[C@@H]2O1` [cantharidin, reference compound], for which, on PP2A, the “PP2A activity reduced by” value is about 90%.

With `COc1cc([C@@H]2c3cc4c(cc3[C@@H](O[C@@H]3O[C@@H]5CO[C@@H](C)O[C@H]5[C@H](O)[C@H]3O)[C@H]3COC(=O)[C@H]23)OCO4)cc(OC)c1O` [Etoposide], the 50% inhibitory concentration (IC50) with H146 cells stood at 31.2 µM; in the assay on H526 cells, 2.8 µM; in the assay with H446 cells, 3 µM; in the assay with H69 cells, 30 µM; with H524 cells, 3 µM; in the assay with H82 cells, 22.6 µM. Also, the colony formation result with H524 and H69 cells is given as “significantly reduced colony formation”.

On to “atezolizumab: humanized immunoglobulin (Ig) G1 monoclonal antibody that targets PD-L1 [reference compound]”, for which the “effect on spheroids (degeneration), drug alone” value in the assay with H446 spheroids is “no effect”.
